Test results published in patent US10426815B2, “Prevention and treatment of itch with an MRGPR antagonist” (THE GENERAL HOSPITAL CORPORATION, priority 2015, dated 2019).
Ends that are not written are not given here.

Key:
[1] = tested on: mice (itch, scratching bouts); assay: Mouse cheek model, scratching bouts; assay type: in vivo; conditions: intradermal injection into the cheek, 10 μl
Method: The mouse cheek model was used to evaluate scratching behavior in Mrgpr cluster Δ−/− and NK1−/− mice. Mice used for behavioral studies were 2 to 3 months old, 20-30 g. Mice were habituated for 30 minutes/day for 3 days prior and for 15 minutes on the day of the study. 10 μl of each compound were delivered by a 31G needle to the cheek. The mice were not shaved prior to injections to avoid irritation. All experiments were performed at consistent times during the day (9:00 am to 2:00 pm) and under the same conditions and in groups of at least 7 mice. The mice were videotaped in a soundproof environment minimize distraction. Recordings were scored for the number of scratching bouts that occur over 1 minute intervals during 25 minute observation periods and the investigator was not aware of the group allocation during scoring the study and behavioral analysis. A scratching bout was initiated by lifting of the hind paw to the area of injection, and ended by returning of the hind paw to the floor or to the mouth. […]
For behavioral studies, average numbers of scratching bouts were compared across groups using one-way ANOVA. Pair-wise comparisons were performed using student t test after correcting p values for multiple comparisons using the Bonferroni procedure. For DRG studies and mast cell degranulation studies, unpaired student t-test was used. Differences were considered to be statistically significant for P<0.05. Data analysis was performed using PRISM 6.

MrgA3 (mouse MrgprA3) = target: T1, MrgA3 (mouse MrgprA3) (Mus musculus, UniProt Q91WW3); assay: Calcium imaging of cells transfected with the GPCR (Table 1); assay type: cell-based; conditions: chloroquine 100 μM (FIG. 7c)
T1 construct: expressed in transfected cells; host or cells: HeLa cells, pcDNA3.1(-)
T1 sequence (Q91WW3 1-302): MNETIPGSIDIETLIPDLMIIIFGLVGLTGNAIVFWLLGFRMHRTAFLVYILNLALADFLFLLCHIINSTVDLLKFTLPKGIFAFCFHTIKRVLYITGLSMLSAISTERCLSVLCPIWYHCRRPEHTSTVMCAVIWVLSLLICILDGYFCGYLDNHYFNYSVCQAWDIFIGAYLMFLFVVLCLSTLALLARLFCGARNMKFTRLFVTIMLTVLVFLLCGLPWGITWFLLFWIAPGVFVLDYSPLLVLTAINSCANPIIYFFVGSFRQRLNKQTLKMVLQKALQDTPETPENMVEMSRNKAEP
Method: (§1) Human NK1 cDNA was obtained from LIFE Technologies, PCR cloned with Xho I-Hind III ends and cloned into pcDNA3.1(−). Mouse NK2 and NK3 expression-ready vectors were obtained from […] (Piscataway, N.J.). All other Mrgprs (human MRGPRX1, human MRGPRX2, human MRGPRX3, human MRGPRX4, mouse MrgprA2a, mouse MrgprA2b, mouse MrgprA3, mouse MrgprA4, mouse MrgprA9, mouse MrgprA10, mouse MrgprB4 and mouse MrgprB5) were cloned by PCR from genomic DNAs and inserted into pcDNA3.1 (−).
(§2) 10 μg of expression vector (human MRGPRX2, mouse MrgprA1 or NK1) and 10 μl of LIPOFECTAMINE 2000 transfection reagent were diluted into 0.5 ml of DMEM and separately left at room temperature (RT) for 5 min. They were then mixed and incubated at RT for 20 minutes prior to being added to HeLa cells. HeLa cells were grown to confluence, trypsinized and 1×10^6 cells were pelleted in a 15 ml tube by centrifugation at 1000 rpm for 5 minutes. The DMEM-LIPOFECTAMINE 2000-DNA mixture (1 ml) was then added to the cell pellet, suspended and incubated at RT for 5 minutes. 2 ml of complete DMEM with 10% FBS without antibiotics were added to the tube, mixed by inverting the tube, plated into a 96-well glass bottom plate at 50,000 cells/well, and placed in a 37° C. CO2 incubator for 3 hours. HeLa cells transfected with salmon sperm DNA were plated as a control. The medium was changed after 3 hours and left in the incubator. 24 hours after transfection, the medium in the wells was removed and 100 μl of complete DMEM containing 2 μM of FURA-2 were added to each well and left at room temperature in the dark for 1 hr.
(§3) Calcium imaging was performed immediately after loading cells with Fura-2, using a ZEISS Axiovert 200M microscope platform equipped with a flipping filter wheel for ratiometric imaging. Axiovision software, version 4.6 was used for calcium image analysis of the cells excited at 340 nm and 380 nm. Agonists were added at 15 seconds after the start of the excitation procedure. Antagonists were added five minutes before imaging with the agonists. Images were taken every 5 seconds, including at zero time, during a 90 second period or longer if required. The software later analyzed all images taken during each excitation period. Ratiometric changes were measured in 10-20 cells in each individual experiment. An average of the fluorescence of the cells in each image was calculated and plotted against time in seconds.

MrgX1 (human MRGPRX1) = target: T2, MrgX1 (human MRGPRX1) (Homo sapiens, UniProt Q96LB2); assay: as above; assay type: cell-based; conditions: SP 10 μM (FIG. 9); chloroquine 100 μM (FIG. 7c)
T2 construct: expressed in transfected cells; host or cells: HeLa cells, pcDNA3.1(-)
Method: as §1, §2, §3

T2 sequence (Q96LB2 whole entry): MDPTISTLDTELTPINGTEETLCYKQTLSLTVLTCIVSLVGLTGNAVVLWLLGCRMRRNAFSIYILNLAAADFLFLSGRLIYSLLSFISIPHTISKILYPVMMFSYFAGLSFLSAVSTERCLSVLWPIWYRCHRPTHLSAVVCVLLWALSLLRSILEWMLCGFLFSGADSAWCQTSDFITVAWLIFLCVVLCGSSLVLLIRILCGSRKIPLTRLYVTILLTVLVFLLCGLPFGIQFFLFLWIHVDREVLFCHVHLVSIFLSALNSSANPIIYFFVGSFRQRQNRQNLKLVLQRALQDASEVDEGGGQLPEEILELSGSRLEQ

Compound | provocation of itch (scratching bouts) by the injected substance, WT mice [1] | activation of mouse MrgprA3 by the substance (in words) (MrgA3 (mouse MrgprA3)) | activation of human MRGPRX1 by the substance (in words) (MrgX1 (human MRGPRX1))
PAMP: PAMP peptide of the behavioral studies, length not stated (ARLDVASEFRKKWNKWALSR; ends and bridges not checked; UniProt P35318 22-41, looked up) | don't cause itch | – | –
CCN(CC)CCCC(C)Nc1ccnc2cc(Cl)ccc12 (stereo not shown) [Chloroquine, chloroquine] | – | activates | activates
LL-37: antimicrobial peptide that activates MRGPRX2 | don't cause itch | – | –
